{"source": "patent US9180215B2", "about": "“Positron emission tomography imaging method” (PURDUE RESEARCH FOUNDATION, priority 2007, dated 2015)", "target": "T1, folate receptors on KB cells (Homo sapiens, UniProt P15328)", "T1 construct": "endogenous in cells; host or cells: KB cells", "T1 sequence (P15328 25-234)": "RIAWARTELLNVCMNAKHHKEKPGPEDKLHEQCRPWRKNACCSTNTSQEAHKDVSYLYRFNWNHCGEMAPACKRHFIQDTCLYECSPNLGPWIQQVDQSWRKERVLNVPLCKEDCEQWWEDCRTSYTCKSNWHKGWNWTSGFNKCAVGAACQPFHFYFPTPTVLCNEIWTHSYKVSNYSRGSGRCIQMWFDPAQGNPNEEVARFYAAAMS", "experiment": "Competitive binding assay using KB cells (displacement of 3H-folic acid)", "conditions": "competitive binding at folate receptors on KB cells, 10 nM 3H-folic acid, 37° C., 1 h", "experimental": "Competitive binding assay using KB cells. Relative binding affinity of the folate-fluoro-phenyl conjugate was evaluated according to the standard literature protocol by Westerhof et. al. (Mol Pharmacol, 1995, 48, 459-471) and C. P. Leamon et. al. (Bioconjugate Chem., 2006, 17 (5), 1226-1232) with minor modification.\nThen cells were rinsed three times with 250 μL of PBS (phosphate saline buffer) and one time with trichloro-acetic acid. 1% sodium dodecylsulfate (250 μL) in PBS were added to each well and after 10 min cell lysates were transferred to individual vials containing 3 mL of scintillation cocktail and radioactivity was counted."}
{"smiles": "Nc1nc2ncc(CNc3ccc(C(=O)N[C@@H](CCC(=O)NCCNC(=O)CCOCCOCCOCCOCCOCCOCCNC(=O)c4ccc(F)cc4)C(=O)O)cc3)nc2c(=O)[nH]1", "note": "[compound of FIG. 1]", "values": [{"measurement": "Kd", "result": 23.8, "unit": "nM"}]}
